Results on two substances are retold here after US11077167B2, “Agent for promoting skeletal muscle injury repair” (Osaka University, priority 2017, dated 2021).

This test relates to angiogenesis. The test can be described thus: Angiogenic activity. Conditions: truncated peptides compared with SVVYGLR; confirmed by the present inventors, no method given.

For the substance VVYGLR, the angiogenic activity result is “retain the angiogenic activity of SVVYGLR”.
For the substance SVVYGL, the angiogenic activity result is on record as “retain the angiogenic activity of SVVYGLR”.
